Experimental data reported in patent US5985885A, “Quinazoline-4-amino-2-(piperidine-1-yl-4-substituted) derivatives having antihypertensive activity, a method for their preparation and their pharmaceutical use” (priority 1996, dated 1999).
pIC50: −log10 of the molar value. Structures can show the parent of a compound that is named as a salt. Where two headings read alike, the source gives them in different places.

Assays:
[1] = molecular target: alpha1A + alpha1C adrenergic receptor (human prostate); test: [3H]-prazosin binding in human prostate; details: alpha1A + alpha1C subtype, pH 7.5, 30 min, 25° C., read-out: Inhibition of the binding of [3H]-prazosin IC50
[2] = molecular target: T1, alpha1B adrenergic receptor (rat liver) (Rattus norvegicus, UniProt P15823); test: [3H]-prazosin binding in rat liver
T1 sequence (P15823 1-515): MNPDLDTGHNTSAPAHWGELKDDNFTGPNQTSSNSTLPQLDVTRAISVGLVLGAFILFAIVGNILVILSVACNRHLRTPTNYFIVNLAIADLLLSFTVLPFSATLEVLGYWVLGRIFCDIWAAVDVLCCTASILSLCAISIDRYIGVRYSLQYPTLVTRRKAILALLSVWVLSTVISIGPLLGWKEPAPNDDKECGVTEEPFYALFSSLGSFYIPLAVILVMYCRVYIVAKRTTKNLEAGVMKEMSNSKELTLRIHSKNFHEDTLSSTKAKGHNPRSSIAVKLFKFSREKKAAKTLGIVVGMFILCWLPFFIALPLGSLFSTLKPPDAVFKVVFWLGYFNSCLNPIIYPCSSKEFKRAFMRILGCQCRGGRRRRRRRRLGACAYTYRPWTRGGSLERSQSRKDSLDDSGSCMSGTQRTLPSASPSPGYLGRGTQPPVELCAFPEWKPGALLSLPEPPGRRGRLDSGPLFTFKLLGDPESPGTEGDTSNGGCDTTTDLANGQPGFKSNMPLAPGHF

[3] = tested on: spontaneously hypertensive (SHR) rat; test: Anti-hypertensive activity in the spontaneously hypertensive (SHR) rat (oral); assay type: in vivo; details: for ED20: Rattus norvegicus, 2 h, 0-120 min, NC: not calculable, read-out: Systolic pressure ED20 (0-120 min)
Description: Animals having a mean basal systolic pressure of not less than 180 mmHg were used.

[4] = tested on: anaesthetised normotensive rat; test: Hypotensive activity in the anaesthetised normotensive rat (IV); assay type: in vivo; details: for ED30: Rattus norvegicus, read-out: Reduction in mean arterial pressure ED30
Procedure: In order to evaluate the in vivo activity, some of the compounds of the invention were administered (IV) in bolus form to the normotensive rat anaesthetised with urethane plus ketamine. The compounds were administered in at least three doses in experiments performed in duplicate so as to enable the calculation of ED30 values, that is, the dose in mg/kg that reduces the mean basal arterial pressure by 30%. The compounds of the invention, and several reference standards, were dissolved in dilute hydrochloric acid at a physiologically acceptable pH, and physiological solution was administered in a volume of 3 ml/kg. Evaluations were made at two time periods, that is, the intervals 0-30 min and 30-60 min after administration.

[5] = molecular target: T2, 5-HT2 receptors (isolated rabbit aorta) (Oryctolagus cuniculus, UniProt G1SYA7); test: Antagonism of serotonin-induced contraction of isolated rabbit aorta
T2 construct: Four rings formed from rabbit aorta were joined together to form a chain; from tissue; host or cells: isolated rabbit aorta rings
Procedure: The antagonist activity of some of the compounds of the invention on the contractile activity of seratonin on isolated rabbit aorta, effected principally by way of the 5-HT2 receptors, is reported here by way of example. The method of Feniuk et al [Br. J. Pharmacol. (1985), 86, 697-704] was used, with slight modifications. Four rings formed from rabbit aorta were joined together to form a chain; the preparation was placed in an isolated organ bath in the presence of Krebs at 37° C. and attached to an isometric transducer, a tension of 2 g being applied and oxygenation was carried out continuously with O2 --CO2 (95-5 v/v). A seratonin concentration(0.3 μM) was used that was capable of causing sub-maximal contraction of the preparation. […] The results obtained in this way are given in Table 4 below which, for several of the compounds of the invention gives IC50 values calculated by the regression method on a set of at least 2 experiments at 5 different concentrations for each of the compounds examined, these being compared with values obtained for several reference compounds.

[6] = molecular target: T3, alpha1A adrenergic receptor (rat GSM) (Rattus norvegicus, UniProt P43140); test: [3H]-prazosin binding in rat submaxillary glands (GSM); details: alpha1A subtype, pH 7.4, 45 min, 25° C., read-out: Inhibition of the binding of [3H]-prazosin IC50
T3 sequence (P43140 1-466): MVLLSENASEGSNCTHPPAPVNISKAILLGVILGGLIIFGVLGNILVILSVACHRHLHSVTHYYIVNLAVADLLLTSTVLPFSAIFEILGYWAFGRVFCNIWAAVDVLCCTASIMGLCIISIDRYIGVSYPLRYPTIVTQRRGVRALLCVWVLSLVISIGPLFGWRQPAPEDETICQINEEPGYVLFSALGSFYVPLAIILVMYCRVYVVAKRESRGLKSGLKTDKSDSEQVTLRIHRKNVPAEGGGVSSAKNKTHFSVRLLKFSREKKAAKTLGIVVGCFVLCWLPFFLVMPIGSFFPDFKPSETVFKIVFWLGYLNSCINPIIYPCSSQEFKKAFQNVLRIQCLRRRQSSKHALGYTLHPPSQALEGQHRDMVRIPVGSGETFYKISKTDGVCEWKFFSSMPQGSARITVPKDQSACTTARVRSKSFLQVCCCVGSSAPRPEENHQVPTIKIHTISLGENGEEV

in vivo = details: rat
[7] = 0.5 h, IV bolus, interval 0-30 min
[8] = 1 h, IV bolus, interval 30-60 min
[9] = isolated rabbit aorta, 37° C., compound 10 min before agonist, limits (p < 0.05)

T2 sequence (G1SYA7 1-469): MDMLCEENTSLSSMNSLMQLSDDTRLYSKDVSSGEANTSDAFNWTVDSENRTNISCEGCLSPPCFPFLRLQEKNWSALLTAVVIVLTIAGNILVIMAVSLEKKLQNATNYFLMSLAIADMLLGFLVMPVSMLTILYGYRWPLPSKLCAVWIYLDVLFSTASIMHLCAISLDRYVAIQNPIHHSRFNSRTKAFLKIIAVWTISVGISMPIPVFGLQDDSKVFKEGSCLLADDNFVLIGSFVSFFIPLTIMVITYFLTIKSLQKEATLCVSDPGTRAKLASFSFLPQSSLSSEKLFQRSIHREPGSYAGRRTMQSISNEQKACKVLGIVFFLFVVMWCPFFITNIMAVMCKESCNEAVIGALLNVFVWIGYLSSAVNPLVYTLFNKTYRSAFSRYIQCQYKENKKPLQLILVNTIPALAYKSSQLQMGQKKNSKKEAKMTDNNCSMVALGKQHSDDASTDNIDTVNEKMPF

COc1cc2nc(N3CCC(c4ccco4)CC3)nc(N)c2cc1OC [Compound 4]
pIC50 [1]: 8.42
pIC50 ([2]; read-out: Inhibition of the binding of [3H]-prazosin IC50, rat liver, alpha1B subtype): 8.77
Cardiac frequency, max effect at 3 mg/kg ([3]; 3 mg/kg): +0.6 % vs basal
Systolic pressure, max effect at 3 mg/kg ([3]; 3 mg/kg): -15.5 % vs basal
ED20 [3]: 13.1 mg/kg
ED30 [4, 7]: 0.08 mg/kg
ED30 [4, 8]: 0.1 mg/kg
pIC50 ([5]; read-out: Inhibitory effect (IC50) on the contraction caused by 0.3 μM serotonin, isolated rabbit aorta, 37° C., compound 10 min before agonist, limits (p < 0.05)): 4.49
pIC50 [6]: 8.51

COc1cc2nc(N3CCC(c4ccccn4)CC3)nc(N)c2cc1OC [Compound 7, 1-(4-amino-6,7-dimethoxy-2-quinazolinyl)-4-(2-pyridyl)piperidine(hydrochloride)]
bioavailability (in vivo; plasma, po, 15 mg/kg OS vs 1 mg/kg IV, read-out: relative bioavailability (AUC OS/AUC IV, dose corrected)): ~80%
AUC (in vivo; plasma, po, OS 15 mg/kg): 3620 ng·h/mL
concentration at 0.25 h (in vivo; plasma, po, OS 15 mg/kg): 230 ng/mL
concentration at 0.5 h (in vivo; plasma, po, OS 15 mg/kg): 360 ng/mL
concentration at 1 h (in vivo; plasma, po, OS 15 mg/kg): 480 ng/mL
concentration at 2 h (in vivo; plasma, po, OS 15 mg/kg): 390 ng/mL
concentration at 3 h (in vivo; plasma, po, OS 15 mg/kg, 3 h): 340 ng/mL
concentration at 4 h (in vivo; plasma, po, OS 15 mg/kg, 4 h): 320 ng/mL
concentration at 6 h (in vivo; plasma, po, OS 15 mg/kg, 6 h): 280 ng/mL
concentration at 8 h (in vivo; plasma, po, OS 15 mg/kg, 8 h): 180 ng/mL
concentration at 12 h (in vivo; plasma, po, OS 15 mg/kg, 12 h): 80 ng/mL
AUC (in vivo; plasma, IV 1 mg/kg): 300 ng·h/mL
concentration at 0.083 h (in vivo; plasma, IV 1 mg/kg, 0.083 h): 420 ng/mL
concentration at 0.25 h (in vivo; plasma, IV 1 mg/kg): 300 ng/mL
concentration at 0.5 h (in vivo; plasma, IV 1 mg/kg): 180 ng/mL
concentration at 1 h (in vivo; plasma, IV 1 mg/kg): 100 ng/mL
concentration at 2 h (in vivo; plasma, IV 1 mg/kg): 40 ng/mL
Plasma concentration (in vivo; IV 1 mg/kg, 6 h): 0 ng/mL
concentration at 3 h (in vivo; plasma, iv, 1 mg/kg): 20 ng/mL
concentration at 4 h (in vivo; plasma, iv, 1 mg/kg): 10 ng/mL
concentration at 24 h (in vivo; plasma, po, 15 mg/kg): 20 ng/mL
half-life (in vivo; plasma, read-out: half-life, terminal elimination phase (converted)): ~6 h
pIC50 [1]: 8.30
pIC50 [2]: 8.09
anti-hypertensive action (in words) [3]: about as powerful as prazosin
Cardiac frequency, max effect at 3 mg/kg ([3]; 3 mg/kg): +0.9 % vs basal
Systolic pressure, max effect at 3 mg/kg ([3]; 3 mg/kg): -22.7 % vs basal
ED20 [3]: 2.2 mg/kg
ED30 [4, 7]: 0.08 mg/kg
ED30 [4, 8]: 0.09 mg/kg
pIC50 [5, 9]: 4.26
pIC50 [6]: 8.51

COc1ccc(CCN(C)CCCC(C#N)(c2ccc(OC)c(OC)c2)C(C)C)cc1OC (stereo not drawn) [Verapamil, reference compound]
Cardiac frequency, max effect at 3 mg/kg ([3]; 3 mg/kg): +2.8 % vs basal
Systolic pressure, max effect at 3 mg/kg ([3]; 3 mg/kg): -9.0 % vs basal
reduction of arterial pressure ([3]; 3 mg/kg): ≤ 9%
hypotensive activity compared with prazosin/compounds (in words) ([4]; IV bolus): less active
ED30 ([4]; iv, 0.5 h): 0.63 mg/kg
ED30 ([4]; iv, 1 h): 1.06 mg/kg

COc1cc2nc(N3CCN(C(=O)c4ccco4)CC3)nc(N)c2cc1OC [Prazosin, reference compound]
Cardiac frequency, max effect at 3 mg/kg ([3]; 3 mg/kg): +9.7 % vs basal
Systolic pressure, max effect at 3 mg/kg ([3]; 3 mg/kg): -20.0 % vs basal
increase in cardiac frequency over the basal frequency ([3]; 3 mg/kg, significant): approximately 10%
ED20 [3]: 2.8 mg/kg
ED30 [4, 7]: 0.02 mg/kg
ED30 [4, 8]: 0.05 mg/kg
pIC50 [5, 9]: < 3.88
5-HT2-antagonist activity (in words) ([5]; rabbit aorta): inactive until higher doses (50 μg/ml)

COc1cc2nc(N3CCC(c4ccccc4OC)CC3)nc(N)c2cc1OC [Compound 2]
pIC50 [1]: 8.11
pIC50 [2]: 8.11
Cardiac frequency, max effect at 3 mg/kg ([3]; 3 mg/kg): +2.1 % vs basal
Systolic pressure, max effect at 3 mg/kg ([3]; 3 mg/kg): -6.4 % vs basal
ED30 [4, 7]: 0.5 mg/kg
ED30 [4, 8]: 0.55 mg/kg
pIC50 [5, 9]: 4.43
pIC50 [6]: 7.73

COc1cc2nc(N3CCC(c4ccc(C)o4)CC3)nc(N)c2cc1OC [Compound 5]
pIC50 [1]: 8.77
pIC50 [2]: 8.68
anti-hypertensive action (in words) [3]: about as powerful as prazosin
Cardiac frequency, max effect at 3 mg/kg ([3]; 3 mg/kg): -0.2 % vs basal
Systolic pressure, max effect at 3 mg/kg ([3]; 3 mg/kg): -22.1 % vs basal
ED20 [3]: 2 mg/kg
ED30 [4, 7]: 0.03 mg/kg
ED30 [4, 8]: 0.03 mg/kg
pIC50 [5, 9]: 5.08
pIC50 ([5]; rabbit aorta, 0.3 μM serotonin, conversion of 3.1 μg/ml, read-out: IC50, 5-HT2 antagonist activity): 5.12
times less than ketanserine (IC50) ([5]; rabbit aorta, versus ketanserine IC50 0.09 μg/ml): approximately 30 times
pIC50 [6]: 8.46
